Measured values as given in publication PMC9000710, “Synthesis and Hemostatic Activity of New Amide Derivatives” (Molecules, 2022).

How the values were obtained:
[1] = tested on: human blood plasma; test: Activated partial thromboplastin time (aPTT) clotting assay; assay type: biochemical
Protocol: (§1) Human blood plasma was isolated from fresh buffy coats (collected onto the citrate-dextrose solution—ACD) purchased from the Regional Centre of Blood Donation and Blood Treatment in Lodz, Poland. In the isolation procedure, the buffy coats (60 mL units) were divided into volumes of 10 mL and centrifuged (4000 rpm/15 min) in 15 mL tubes. Next, 1 mL solutions of each amide 1–8 were prepared in distilled water at concentrations of 10, 25, and 50 mg/L. Then, 450 μL of plasma and 50 μL of each amide at the tested concentrations were placed into 1.5 mL vials. The vials were vortexed (Vortex Biosan V-1 plus), incubated at 37 °C on a thermoblock (Dry Block Thermostat Biosan TDB-120), and analyzed using a Kselmed K-3002 OPTIC coagulometer (Grudziądz, Poland), based on the manufacturer’s protocols (described below). The control sample was native blood plasma, untreated with any of the examined substances.
Fifty microliters of control plasma and plasma samples treated with the amides were transferred to measuring cuvettes and placed in the thermoblock module (37 °C) of the coagulometer (KSELMED, K-3002 Optic). Then, 50 μL of Dia-APTT reagent (DIAGON Kft. Hungary; cat. no. 72048) was added. The mixture was incubated for 180 s at 37 °C. Finally, 50 μL of reagent Dia-CaCl2 (DIAGON Kft. Hungary; cat. no. 41192) was added. Measurements were started immediately.

[2] = tested on: human blood plasma; test: Prothrombin time (PT) clotting assay; assay type: biochemical
Protocol: as §1
Fifty microliters of control plasma and plasma samples treated with the amides were transferred to measuring cuvettes and placed in the thermoblock module (37 °C) of a coagulometer (KSELMED, K-3002 Optic). Then, 100 μL of Dia-PT reagent (DIAGON Kft. Hungary; cat. no. 81100) was added. Measurements were started immediately.

[3] = tested on: human blood plasma; test: Thrombin time (TT) clotting assay; assay type: biochemical
Protocol: as §1
Both 100 μL of control plasma and plasma samples treated with the amides were transferred to measuring cuvettes, which were placed in the thermoblock module (37 °C) of the coagulometer (KSELMED K-3002 Optic). Then, 100 μL of thrombin solution (4.5 U/mL, in 0.9% NaCl; Biomed, Lublin, Poland) was added to the cuvette. Measurements were started immediately.

[4] = tested on: human blood plasma; test: Clot formation and fibrinolysis (CFF) assay; assay type: biochemical; details: for Amax (maximum of fibrin clot absorbance at 360 nm) / VmaxC (of Fibrin Polymerization) / VmaxF (of Fibrin Clot Lysis): control plasma assumed as 100%, mean ± SD, n = 5–7
Source text: The CFF assay enables analysis of both the blood plasma coagulation process and fibrinolysis efficiency. The thrombin enzyme in the reagent mixture initiates blood plasma fibrinogen polymerization, leading to an increase in absorbance in the sample until the maximal absorbance (Amax) is attained. The fibrinolytic activity of blood plasma is induced by the tissue-type plasminogen activator (t-PA). The activation of fibrinolysis in the tested samples leads to fibrin clot degradation and decreases the absorbance to the baseline.
Figure 11 An exemplary curve of blood plasma coagulation and clot lysis recorded during the clot formation and fibrinolysis (CFF) assay. The first step in the CFF test involves activation of the blood plasma coagulation cascade and fibrin clot formation (1). It is characterized by the maximal velocity of the fibrin polymerization parameter (VmaxC). The maximal absorbance (Amax) peak corresponds to the fibrin stabilization phase and is an indicator of fibrin clot thickness (2). The third step of the CFF assay covers the activation of fibrinolytic mechanisms and fibrin clot degradation (3) and is described by the maximal velocity of clot lysis (VmaxF).
Thrombin was purchased from BioMed (Lublin, Poland). A tissue-type plasminogen activator (Actilyse®) was purchased from Boehringer Ingelheim, Ingelheim am Rhein, Germany. Kinetic measurements were executed using a SpectrostarNano microplate spectrophotometer (BMG LabTech, Ortenberg, Germany).
Measurements were performed using a kinetic model, as described in our previous work. Briefly, blood plasma was preincubated with the examined substances (at final concentrations of 10, 25, and 50 mg/L) for 15 min at 37 °C. Then, 100 μL of blood plasma was added to microtiter plate wells, which was followed by 200 μL of the reagent mixture (0.75 U/mL thrombin, 225 ng/mL t-PA and 7.5 mM CaCl2) suspended in tris-buffered saline (0.05 M TBS, 0.9% NaCl; pH 7.4). Measurements of absorbance changes were started immediately and continued for 60 min at 37 °C, λ = 360 nm. The following parameters were used to determine the effects of the examined substances on the coagulation and fibrinolytic properties of the blood plasma: the maximal velocity of fibrinogen polymerization (VmaxC), which is an indicator of the plasma coagulation efficiency; the maximal absorbance (Amax), which is an indicator of the fibrin clot stabilization and its thickness; the maximal velocity of clot lysis (VmaxF), which is an indicator of blood plasma fibrinolytic activity.

[5] = Hemolysis assay (stability of erythrocytes); assay type: cell-based, human; details: male, human, heparinized whole blood diluted with saline (erythrocytes); for hemolysis at 45 min, 5 mg/L / hemolysis at 120 min, 5 mg/L / hemolysis at 240 min, 5 mg/L: c 5 mg/L; for hemolysis at 45 min, 50 mg/L / hemolysis at 120 min, 50 mg/L / hemolysis at 240 min, 50 mg/L: c 50 mg/L; for hemolysis at 45 min, 500 mg/L / hemolysis at 120 min, 500 mg/L / hemolysis at 240 min, 500 mg/L: c 500 mg/L
Protocol: Heparinized whole blood was used from a healthy volunteer. The whole blood (10 mL) was diluted with saline solution (90 mL). For each UV-Vis measurement, 2.5 mL of diluted blood was used. For each blood sample, 1 mL of a saline solution containing hydrochlorides 1–8 at concentrations of 5, 50, and 500 mg/L was added. As a control were used blood samples with the addition of 1% solution of DMSO in saline and 1% solution of SDS in saline. In all cases, the measurements were repeated twice for each concentration. […] The cells were centrifuged, and the absorbance of the supernatant, which contained plasma and lysed erythrocytes, was measured at 540 nm. The percentage of lysis was calculated from a standard curve of lysed erythrocytes treated with SDS [52].

SMILES	aPTT Time [% of Control] ([1]; c 10 mg/L)	aPTT Time [% of Control] ([1]; c 25 mg/L)	aPTT Time [% of Control] ([1]; c 50 mg/L)	PT Time [% of Control] ([2]; c 10 mg/L)	PT Time [% of Control] ([2]; c 25 mg/L)	PT Time [% of Control] ([2]; c 50 mg/L)	TT Time [% of Control] ([3]; c 10 mg/L)	TT Time [% of Control] ([3]; c 25 mg/L)	TT Time [% of Control] ([3]; c 50 mg/L)	Amax (maximum of fibrin clot absorbance at 360 nm) ([4]; 10 mg/L) [%]	VmaxC (of Fibrin Polymerization) ([4]; 10 mg/L) [%]	VmaxF (of Fibrin Clot Lysis) ([4]; 10 mg/L) [%]	Amax (maximum of fibrin clot absorbance at 360 nm) ([4]; 25 mg/L) [%]	VmaxC (of Fibrin Polymerization) ([4]; 25 mg/L) [%]	VmaxF (of Fibrin Clot Lysis) ([4]; 25 mg/L) [%]	Amax (maximum of fibrin clot absorbance at 360 nm) ([4]; 50 mg/L) [%]	VmaxC (of Fibrin Polymerization) ([4]; 50 mg/L) [%]	VmaxF (of Fibrin Clot Lysis) ([4]; 50 mg/L) [%]	hemolysis at 45 min, 5 mg/L [5] [%]	hemolysis at 120 min, 5 mg/L [5] [%]	other results
NCCCCCC(=O)NCC1CCC(C(=O)O)CC1 (stereo not shown) [Amide 3, 6-((((1s,4s)-4-Carboxycyclohexyl)methyl)amino)-6-oxohexan-1-aminium chloride]	94.8 ± 4.5 % of Control	94.7 ± 4.1 % of Control	96.3 ± 2.8 % of Control	94.9 ± 2.2 % of Control	95.2 ± 3.0 % of Control	97.0 ± 3.6 % of Control	100.1 ± 2.6 % of Control	100.8 ± 6.9 % of Control	97.2 ± 4.3 % of Control	107.21 ± 6.90	105.61 ± 7.06	93.23 ± 16.83	104.49 ± 9.80	103.88 ± 9.73	97.05 ± 24.39	112.98 ± 8.40	109.78 ± 6.46	102.82 ± 20.01	0.44	0.74	aPTT, effect versus control in words ([1]; tested at 10, 25, 50 mg/L): significantly decreased; prothrombin time, effect versus control in words ([2]; two lower concentrations (10 and 25 mg/L)): decreased; hemolysis at 240 min, 5 mg/L [5]: 0.41%; hemolysis at 45 min, 50 mg/L [5]: 0%; hemolysis at 120 min, 50 mg/L [5]: 0%; hemolysis at 240 min, 50 mg/L [5]: 0.26%; hemolysis at 45 min, 500 mg/L [5]: 0.47%; hemolysis at 120 min, 500 mg/L [5]: 0.65%; hemolysis at 240 min, 500 mg/L [5]: 0.23%
Cl.NCCCCCC(=O)NCCCCCC(=O)O [Amide 4, 6-(6-Aminohexanamido)hexanoic acid hydrochloride]	98.1 ± 5.2 % of Control	97.4 ± 5.4 % of Control	99.9 ± 6.0 % of Control	97.3 ± 4.2 % of Control	95.4 ± 2.3 % of Control	93.7 ± 3.0 % of Control	96.3 ± 6.9 % of Control	95.5 ± 8.8 % of Control	97.6 ± 5.0 % of Control	115.37 ± 8.73	107.93 ± 7.23	81.36 ± 21.07	114.07 ± 15.71	105.85 ± 7.85	70.35 ± 16.30	109.29 ± 9.02	105.89 ± 5.64	55.95 ± 10.51	1	0.74	prothrombin time, effect versus control in words ([2]; two higher concentrations (25 and 50 mg/L)): significantly decreased; decrease of VmaxF ([4]; concentration not given): 30–40%; hemolysis at 240 min, 5 mg/L [5]: 0.27%; hemolysis at 45 min, 50 mg/L [5]: 0%; hemolysis at 120 min, 50 mg/L [5]: 0.71%; hemolysis at 240 min, 50 mg/L [5]: 0.32%; hemolysis at 45 min, 500 mg/L [5]: 0.38%; hemolysis at 120 min, 500 mg/L [5]: 0.21%; hemolysis at 240 min, 500 mg/L [5]: 0.22%
